In patent US20240398781A1, “SPIROCYCLIC CYCLIC MODULATORS OF CHOLESTEROL BIOSYNTHESIS AND THEIR USE FOR PROMOTING REMYELINATION” (GENENTECH, INC., priority 2021, published 2024) one finds Ki and EC50 data, which are given here for five compounds.

Assay [1] addresses human emopamil binding protein and human 7-dehydrocholesterol reductase co-expressing cells (hEBP-DHCR7 membrane) (Homo sapiens (Human), UniProt Q15125). Description: Radioligand filter binding assay on hEBP-DHCR7 membrane. Conditions: [3H]-(S)-6-(2-Methyl-3-(6-(trifluoromethyl)pyridin-3-yl)propyl)-2-thia-6-azaspiro[3.4]octane 2,2-dioxide radioligand, HEK293 membrane co-expressing hEBP and hDHCR7. In a few lines:
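HEK293 cells transiently co-expressing human EBP and DHCR7 supplied whole-cell membranes (10 μg/well), incubated 3 h at 22 °C with [3H]-labelled spiro-octane dioxide ligand (added at 25 nM) and compound (0.06-5000 nM final, 8 doses, n=2). Bound ligand was collected on PEI-treated GF/B filters and counted by scintillation. IC50 was Hill-fitted from % inhibition and reported as Ki.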

Assay [2] has as its system EBP (zymostenol accumulation in EpiSC-derived OPCs). Description: GC/MS-based sterol profiling, zymostenol accumulation in OPCs. It counts as cell-based, mouse. Conditions: Mus musculus, 24 h, EpiSC-derived OPCs, 24 hr treatment, 8 doses from 0.15 nM to 333 nM; read-out: Zymostenol GCMS EC50. In a few lines: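 EpiSC-derived OPCs (100,000/well) were treated 24 h in N2B27 without growth factors. Sterols were TMS-derivatized and analysed by GC/MS full-scan EI, quantified against cholesterol-d7. Zymostenol was normalized to the level after 24 h with 100 nM positive control reference.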

The target in the next assay is human EBP (Homo sapiens (Human), UniProt Q15125). The assay is described as follows: Competition binding assay (SPA, [3H]-Ifenprodil) to determine compound affinity to EBP. To be noted: [3H]-Ifenprodil 10 nM, HEK293 membrane overexpressing human EBP, Ki=IC50/(1+[L]/Kd); read-out: hEBP SPA Ki. The procedure: Membrane preparation: To examine compound binding affinity to EBP, human EBP was overexpressed in human embryonic kidney 293 cells. Cell pellet was lysed in 10 times weight binding buffer (50 mM Tris, 5 mM MgCl2, 0.1 mM EDTA, lx protease inhibitor cocktail, pH 7.5) on ice by using a dounce homogenizer. The solution was centrifuged at 25,000 g for 50 min at 4° C. The membrane pellet was re-suspended in binding buffer and run through a 25 5/8 gauge needle. After checking the concentration by Bradford assay, the whole cell membrane solution was adjusted to 20 mg/mL and stored at −80° C.
This binding solution was centrifuged at 400 g for 5 minutes to collect the bead/membrane mixture. After re-suspending the pellet in binding buffer at the same calculated volume with 0.01% BSA (Sigma A1933), the bead/membrane mixture was added in 384-well low-binding surface plate (PerkinElmer Cat #6057480) at 25 μl/well. Radioligand at different concentrations with and without the non-radio-labeled same ligand 5 uM (for nonspecific and total signal, respectively) was added to bring final volume to 50 µl/well with DMSO concentration at 0.1%. At equilibrium (3 hours after ligand addition), radiometric signal CPM was counted by using a Microbeta2 microplate counter (Perkinelmer).
Competition binding assay to determine compound affinity: The same conditions of the radioligand Kd study were used for compound single dose percentage inhibition and equilibrium dissociation constant Ki examinations, except 50 nL compound DMSO stock was pre-added in 384-well low-binding surface plate (PerkinElmer Cat #6057480) by Echo 550 (Labcyte) to reach the final concentration for single dose test at 1 uM, and dose response test from 0.06 nM to 5 uM (8 dose, 5 times dilution). A pre-incubated bead/membrane mixture was added in compound plate at 0.3 mg beads and […] membrane per well. […] At equilibrium (3 hours after ligand addition), radiometric signal was counted as described above. The percentage inhibition of compound at each testing concentration was calculated by normalizing each condition's CPM readout to full block (5 uM non-radiolabeled ligand) and non-block (DMSO) control conditions. Compound binding inhibition IC50 was determined by nonlinear regression fitting of percentage inhibition plot against compound concentration. Compound Ki was calculated from the equation Ki=IC50/(1+[L]/Kd), which [L] was radioligand concentration used in assay. All tests had N bigger or equal to 2.

The test system of another assay is EpiSC-derived OPCs. Description: In vitro phenotypic screening of OPCs (MBP staining, high-content imaging). It counts as cell-based, mouse. Conditions: Mus musculus, 72 h, percentage of MBP+ oligodendrocytes, 3 days, 0.5 nM to 1000 nM; read-out: OPC EC50. The gist of the method: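 EpiSC-derived mouse OPCs seeded at 150,000/cm^2 on laminin in N2B27 without growth factors, treated 3 days at 37° C. with compound (8 points, 1000 nM to 0.5 nM). Fixed cells stained for MBP and DAPI and imaged; percentage of MBP+ oligodendrocytes fitted by Hill equation for EC50.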

Chain of human EBP (Q15125 whole entry): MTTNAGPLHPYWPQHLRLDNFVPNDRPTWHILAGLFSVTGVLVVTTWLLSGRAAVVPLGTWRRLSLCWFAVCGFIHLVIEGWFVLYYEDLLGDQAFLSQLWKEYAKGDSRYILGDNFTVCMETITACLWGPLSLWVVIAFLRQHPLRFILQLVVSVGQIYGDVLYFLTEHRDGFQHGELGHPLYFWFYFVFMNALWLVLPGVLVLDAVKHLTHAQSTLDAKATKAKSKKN
Chain of human emopamil binding protein and human 7-dehydrocholesterol reductase co-expressing cells (hEBP-DHCR7 membrane) (Q15125 whole entry): as above

Take `CC(C)n1nc(-c2ccc(C(F)(F)F)nc2)nc1[C@@H]1CC[C@H](N2CCC3(C2)CS(=O)(=O)C3)C1` (single isomer, unassigned) [17A*]: the Ki in assay [1] worked out at 24 nM; at human EBP, 22 nM. Moreover, the EC50 in assay [2] was 2.1 nM.

As for `CC(C)n1nc(-c2ccc(C(F)(F)F)nc2)nc1[C@@H]1CC[C@@H](N2CCC3(C2)CS(=O)(=O)C3)C1` (single isomer, unassigned) [17C*], the figures for the EC50 (in the assay on EpiSC-derived OPCs; in assay [2]) were 13 nM and 2.9 nM, respectively. Moreover, the Ki at human EBP amounted to 18 nM.

Regarding `CC(C)n1nc(C(F)(F)F)cc1[C@@H]1CC[C@@H](N2CCC3(C2)CS(=O)(=O)C3)C1` (single isomer, unassigned) [10D*], the inhibition constant (Ki) was found to be 33.1 nM in assay [1] and 43 nM on human EBP. The EC50 in assay [2] was determined as 44 nM.

Turning to `Cc1cc(C(F)(F)F)cnc1[C@H]1CC[C@@H](N2CCC3(C2)CS(=O)(=O)C3)CC1` [Compound 47A, 6-((1s,4s)-4-(3-methyl-5-(trifluoromethyl)pyridin-2-yl)cyclohexyl)-2-thia-6-azaspiro[3.4]octane 2,2-dioxide], the Ki (in assay [1]; on human EBP) was 11 nM each time. For the same compound, the EC50 in assay [2] was determined as 9.1 nM.

For the compound `O=S1(=O)CC2(CCN([C@H]3CC[C@H](c4cccc(C(F)(F)F)n4)CC3)C2)C1` [Compound 62B, 6-((1r,4r)-4-(6-(trifluoromethyl)pyridin-2-yl)cyclohexyl)-2-thia-6-azaspiro[3.4]octane 2,2-dioxide], the Ki in assay [1] is 37 nM. Besides, the EC50 with EpiSC-derived OPCs was found to be 13 nM; in assay [2], 6.4 nM.

The Ki is a measure of affinity in units of concentration, obtained from inhibition or displacement. One may read the EC50 as the midpoint of the concentration-response curve.
